# “Also recorded” adds a separate entry of the source.
# What was measured:
# [1] = test system: procollagen C proteinase enhancer protein, 1,25-D3-MARRS, nascent polypeptide associated complex alpha chain; assay: 2-D SDS-PAGE and mass spectrometry of cell layer EDTA extracts, fragmentation of mineralization related proteins; format: cell-based, Rat; conditions: +BGP versus +BGP with 0.04 mM AEBSF, serum-depleted
# Procedure: Two Step Extraction of Cell Layer—2-Step Method. During the final 24 hour mineralization period, cells were grown in BSA-free, serum-free media conditions to reduce the amount of BSA in fractions used for 2-dimensional gel electrophoresis. Media was removed from each flask, heated at 95° C. for 5 minutes, dialyzed against 5% acetic acid, and lyophilized to dryness. Cell layers were first extracted without mixing for 2 h at 4° C. in 0.05 M Tris-acetate buffer (pH 7.5) containing 0.15 M NaCl, 0.05 M EDTA and 0.02% sodium azide; extracts were then inactivated at 95° C. for 5 minutes, dialyzed against 5% HAc, and lyophilized to dryness. […]
# Mass Spectrometric Analyses. Protein bands were detected by staining with Coomassie blue G or with Sypro Ruby dye according to the manufacturer's instructions (Bio-Rad, Inc.). […] The data were analyzed using Mascot (Matrix Science, LTD), to find protein matches in the MSDB—20050227.fasta database. […]
# AEBSF is a general serine protease inhibitor and the inhibition of mineralization by AEBSF could very well be due to the blockage of cleavage events of other necessary proteins. […] There were no major differences detected between the two growth conditions for either the urea extract or the media fraction. However, the differences detected between the two EDTA extracts were visually dramatic (FIG. 9). […]
# [2] = test system: primary mouse calvarial cultures; assay: MTT assay in primary mouse calvarial cultures; format: cell-based; conditions: 0.01 to 0.1 mM, scored on day 12
# Procedure: Primary mouse calvaria were isolated from 3-5 day old mice and digested with trypsin/collagenase. Three sequential enzymatic digestions were pooled and spun down at 1500 rpm and the cells were resuspended in alpha-MEM containing 10% fetal bovine serum, 2 mM L-glutamine, 100 u/ml penicillin and 30 ug/ml gentamicin (Alpha-Growth Medium). Cells were plated directly at a density of 2-3×10^6 cells per T-75 cm2 flask and allowed to reach confluency (3-4 days). Confluent cultures were passaged by trypsinization and re-plating in 12- or 24-well culture dishes at a density of 20,000 cells per cm2. Cultures were subsequently re-fed at three-day intervals with Alpha-Growth Medium supplemented with 50 ug/ml ascorbic acid and 5 mM beta-glycerol phosphate. Beta-glycerol phosphate was omitted from some wells, which served as an unmineralized control. […] A second set was fixed on day 12 with 70% ethanol and processed for quantitative Alizarin red S staining as described for UMR cultures.
# (§1) MTT Assays Culture wells were washed with Eagle's MEM supplemented with Earle's salts and then incubated with a solution of 0.5 mg/ml MTT (3-(4,5-dimethylthiazol-2-yl)-2,5-diphenyl-2Htetrazolium bromide) in Eagle's MEM for 1-2 h at 37° C. Excess MTT solution was removed, the cells disrupted by mixing briefly with dimethylsulfoxide, and free, reduced dye was read at 490 or 540 nm in a spectrophotometer.
# BAG-75 and BSP = assay: Uptake and proteolytic cleavage of BAG-75 and BSP in mineralizing UMR cultures (SDS-PAGE, staining, immunoblotting); format: cell-based, Rat
# Procedure: Two Step Extraction of Cell Layer—2-Step Method. During the final 24 hour mineralization period, cells were grown in BSA-free, serum-free media conditions to reduce the amount of BSA in fractions used for 2-dimensional gel electrophoresis. Media was removed from each flask, heated at 95° C. for 5 minutes, dialyzed against 5% acetic acid, and lyophilized to dryness. Cell layers were first extracted without mixing for 2 h at 4° C. in 0.05 M Tris-acetate buffer (pH 7.5) containing 0.15 M NaCl, 0.05 M EDTA and 0.02% sodium azide; extracts were then inactivated at 95° C. for 5 minutes, dialyzed against 5% HAc, and lyophilized to dryness. The residual cell layer was next dislodged by scrapping and then extracted overnight at 4° C. by slow mixing with 0.1 M Trisacetate buffer (pH 7.5) containing 8 M urea, 2% (w/v) CHAPS and 0.02% sodium azide. Urea extracts were then homogenized and clarified by ultracentrifugation at 30,000 rpm for 1 h at 4° C. in an SW 50.1 rotor prior to use in 2-dimensional gel electrophoresis.
# Western Blotting—Chemiluminescence Detection. […]
# The effect of AEBSF on the protein distribution within mineralizing cultures was analyzed using cells grown until 64 hours, at which time they were fed with one of four different media conditions. […]
# UMR-106 cells [3] = assay: MTT cell viability assay in UMR 106-01 cultures; format: cell-based, Rat
# Procedure: Cell Culture. UMR 106-01 cells were maintained and cultured at 37° C. and 5% carbon dioxide. Cells were seeded at a density of 1.0×10^5 cells/cm^2 in Growth Medium (Eagle's MEM supplemented with Earle's salts, 1% non-essential amino acids, 10 mM, HEPES, pH 7.2, and 10% fetal bovine serum). After 24 hours (h), the medium was exchanged with Growth Medium containing 0.5% BSA. Sixty-four hours after plating, the culture medium was exchanged with Mineralization Media (Growth Medium containing either 0.1% BSA or 10% fetal bovine serum and 7 mM β-glycerol phosphate). Cultures were then incubated for an additional 24 hours, at the end of which (88 h), the cells were fixed in 70% ethanol and either subjected to MTT assay or extracted for protein. […] Alternatively, AEBSF was added at 44 h after plating; inhibitor was then removed and exchanged for Mineralization Media at 64 h and the amount of mineralization analyzed at 88 h.
# as §1, with “spectrophotometer. […]” for “spectrophotometer.”
# UMR-106 cells [4] = assay: Mineral deposition (hydroxyapatite) within BMF in UMR 106-01 cultures, Alizarin red S quantitation; format: cell-based, Rat
# Procedure: Cell Culture. UMR 106-01 cells were maintained and cultured at 37° C. and 5% carbon dioxide. Cells were seeded at a density of 1.0×10^5 cells/cm^2 in Growth Medium (Eagle's MEM supplemented with Earle's salts, 1% non-essential amino acids, 10 mM, HEPES, pH 7.2, and 10% fetal bovine serum). After 24 hours (h), the medium was exchanged with Growth Medium containing 0.5% BSA. Sixty-four hours after plating, the culture medium was exchanged with Mineralization Media (Growth Medium containing either 0.1% BSA or 10% fetal bovine serum and 7 mM β-glycerol phosphate). Cultures were then incubated for an additional 24 hours, at the end of which (88 h), the cells were fixed in 70% ethanol and either subjected to MTT assay or extracted for protein. In some experiments, protease inhibitors, including serine protease inhibitor AEBSF (4-(2-aminoethyl)-benzenesulfonylfluoride HCl), were added to cultures at 64 h after plating in Mineralization Media. Alternatively, AEBSF was added at 44 h after plating; inhibitor was then removed and exchanged for Mineralization Media at 64 h and the amount of mineralization analyzed at 88 h.
# Quantitation of Mineralization. […] Bound dye was quantitated by extraction for 2 h at 4° C. in cold 10 mM HCl in 70% ethanol. The initial extract was collected and combined with a second extract and then read at 520 nm in a spectrophotometer. A standard curve for Alizarin red S dye was constructed for each analysis and the amount of bound dye/culture well was determined. […] Combined extracts were read at 520 nm in a spectrophotometer and the amount of bound dye/culture well was determined based on a standard curve.
# To investigate the nature of the protease activity responsible for BAG-75/BSP cleavage and the relationship of cleavage with mineralization, a variety of protease inhibitors (Table 1) were tested in the UMR model. Individual inhibitors were added to confluent cultures at 64 hours after plating and the amount of hydroxyapatite deposited within BMF was quantitated 24 hours later. […]
smiles,measurement,setting,value
"Cl.NCCc1ccc(S(=O)(=O)F)cc1 [AEBSF, 4-(2-aminoethyl)-benzenesulfonylfluoride HCl]",cleavage of three additional proteins in EDTA extract,[1],inhibited the cleavage
same,change in viable cell number (MTT),[2],little change in viable cell number
same,uptake of BAG-75 and BSP (75 kDa glycophosphoprotein band) from media by the cell layer,"BAG-75 and BSP; 0.1 mM AEBSF with 7 mM β-glycerol phosphate, 64-88 hours, HCl",blocked; also recorded: blocks uptake
same,proteolytic cleavage of BAG-75 and BSP to 45-50 kDa fragments,"BAG-75 and BSP; UMR cultures with β-glycerol phosphate, two stage extraction, immunoblot",blocks uptake and cleavage
same,concentration below which no loss of cell viability was noted (MTT),"UMR-106 cells [3]; rat, UMR 106-01 cells, pH 7.2",below 1 mM
same,concentration above which toxic (MTT),UMR-106 cells [3]; serum-sufficient or serum-depleted conditions,above 0.4 mM
same,concentration capable of completely blocking mineral nucleation (as low as),"UMR-106 cells [4]; UMR cultures, 64-88 h after plating",0.04 mM
same,effect on mineral nucleation / mineralization in BMF,"UMR-106 cells [4]; UMR system, added at 64 hours after plating, optimal recommended dosage",blocked mineral nucleation
same,"difference in effectiveness, mineralization period (64-88 h) versus proliferation/differentiation period (44-64 h after plating)","UMR-106 cells [4]; assuming baseline mineral level of 150-170 nmoles/well, FIG. 4A",10 fold

# From patent US20080299588A1, “Methods For Measuring Bone Formation” (The Curators of the University of Missouri A public …, priority 2007, published 2008)
